Columns and labels:
Acetylcholinesterase = target: T1, Acetylcholinesterase (Rattus norvegicus, UniProt P37136); test: Inhibition of rat cortex AChE using acetylthiocholine iodide as substrate after 20 mins by Ellman's method
T1 sequence (P37136 whole entry): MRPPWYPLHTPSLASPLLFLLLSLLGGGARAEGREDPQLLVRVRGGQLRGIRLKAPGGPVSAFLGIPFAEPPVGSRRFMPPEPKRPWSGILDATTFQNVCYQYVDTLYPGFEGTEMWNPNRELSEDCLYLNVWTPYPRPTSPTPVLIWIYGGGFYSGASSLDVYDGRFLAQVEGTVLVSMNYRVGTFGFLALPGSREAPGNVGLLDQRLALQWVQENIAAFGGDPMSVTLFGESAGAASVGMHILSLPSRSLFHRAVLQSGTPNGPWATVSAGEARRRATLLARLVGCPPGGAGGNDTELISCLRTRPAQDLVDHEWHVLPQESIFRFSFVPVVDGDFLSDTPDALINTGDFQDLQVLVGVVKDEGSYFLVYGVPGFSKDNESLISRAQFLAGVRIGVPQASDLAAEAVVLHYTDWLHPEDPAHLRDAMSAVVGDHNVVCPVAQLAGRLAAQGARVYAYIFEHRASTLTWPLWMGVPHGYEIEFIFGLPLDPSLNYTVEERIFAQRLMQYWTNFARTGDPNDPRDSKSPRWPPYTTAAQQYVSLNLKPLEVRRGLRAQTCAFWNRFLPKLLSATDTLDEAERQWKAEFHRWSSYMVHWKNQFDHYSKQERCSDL

[1] = target: T2, 5-hydroxytryptamine receptor 1A (Homo sapiens, UniProt P08908)
T2 sequence (P08908 whole entry): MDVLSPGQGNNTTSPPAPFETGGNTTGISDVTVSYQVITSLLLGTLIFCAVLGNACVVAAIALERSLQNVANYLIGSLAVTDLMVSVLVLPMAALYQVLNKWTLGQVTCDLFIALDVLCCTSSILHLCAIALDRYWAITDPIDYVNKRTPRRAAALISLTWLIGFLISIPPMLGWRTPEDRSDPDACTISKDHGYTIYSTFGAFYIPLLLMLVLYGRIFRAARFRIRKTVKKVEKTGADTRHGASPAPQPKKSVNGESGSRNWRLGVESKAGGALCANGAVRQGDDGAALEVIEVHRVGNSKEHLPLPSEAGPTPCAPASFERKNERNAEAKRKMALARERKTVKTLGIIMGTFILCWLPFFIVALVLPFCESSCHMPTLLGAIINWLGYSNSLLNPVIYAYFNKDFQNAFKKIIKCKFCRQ
Description: Agonist activity at human 5-HT1A receptor expressed in HEK293 cells after 60 mins by Eu-cAMP solution based ultra LANCE assay

Butyrylcholinesterase [2] = target: T3, Butyrylcholinesterase (Rattus norvegicus, UniProt Q9JKC1)
Description: (§1) Inhibition of rat serum BChE using butyrylthiocholine iodide as substrate after 20 mins by Ellman's method

in vitro [3] = details: PAMPA
Description: Effective permeability of the compound in PBS/ethanol buffer after 12 hrs by PAMPA

in vitro [4] = details: not told
Description: Effective permeability of the compound in PBS/ethanol buffer

Butyrylcholinesterase [5] = target: T3, Butyrylcholinesterase; remark: listed apart in the source
Description: as §1

[6] = target: Sodium-dependent serotonin transporter (Homo sapiens, UniProt P31645); type: cell-based, HEK293
Sodium-dependent serotonin transporter, sequence (P31645 whole entry): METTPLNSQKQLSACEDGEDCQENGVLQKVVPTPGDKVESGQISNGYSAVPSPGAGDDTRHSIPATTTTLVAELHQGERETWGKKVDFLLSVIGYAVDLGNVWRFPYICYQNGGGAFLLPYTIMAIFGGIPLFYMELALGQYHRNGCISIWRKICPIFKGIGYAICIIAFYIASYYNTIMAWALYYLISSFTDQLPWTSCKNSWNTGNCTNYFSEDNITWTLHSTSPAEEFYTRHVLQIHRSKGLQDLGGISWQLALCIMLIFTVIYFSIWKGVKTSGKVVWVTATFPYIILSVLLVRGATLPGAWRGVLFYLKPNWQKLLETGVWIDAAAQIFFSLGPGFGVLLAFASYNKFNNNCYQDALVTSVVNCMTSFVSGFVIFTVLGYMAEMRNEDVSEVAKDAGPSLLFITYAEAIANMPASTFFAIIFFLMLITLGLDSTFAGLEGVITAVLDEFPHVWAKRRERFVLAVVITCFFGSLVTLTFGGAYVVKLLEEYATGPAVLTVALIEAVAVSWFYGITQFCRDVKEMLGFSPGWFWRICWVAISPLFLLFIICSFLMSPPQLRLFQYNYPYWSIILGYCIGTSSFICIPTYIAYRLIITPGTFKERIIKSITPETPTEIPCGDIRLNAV
Description: Inhibition of SERT (unknown origin) expressed in HEK293 cells assessed as reduction in 5-HT uptake incubated for 30 mins

T3 sequence (Q9JKC1 whole entry): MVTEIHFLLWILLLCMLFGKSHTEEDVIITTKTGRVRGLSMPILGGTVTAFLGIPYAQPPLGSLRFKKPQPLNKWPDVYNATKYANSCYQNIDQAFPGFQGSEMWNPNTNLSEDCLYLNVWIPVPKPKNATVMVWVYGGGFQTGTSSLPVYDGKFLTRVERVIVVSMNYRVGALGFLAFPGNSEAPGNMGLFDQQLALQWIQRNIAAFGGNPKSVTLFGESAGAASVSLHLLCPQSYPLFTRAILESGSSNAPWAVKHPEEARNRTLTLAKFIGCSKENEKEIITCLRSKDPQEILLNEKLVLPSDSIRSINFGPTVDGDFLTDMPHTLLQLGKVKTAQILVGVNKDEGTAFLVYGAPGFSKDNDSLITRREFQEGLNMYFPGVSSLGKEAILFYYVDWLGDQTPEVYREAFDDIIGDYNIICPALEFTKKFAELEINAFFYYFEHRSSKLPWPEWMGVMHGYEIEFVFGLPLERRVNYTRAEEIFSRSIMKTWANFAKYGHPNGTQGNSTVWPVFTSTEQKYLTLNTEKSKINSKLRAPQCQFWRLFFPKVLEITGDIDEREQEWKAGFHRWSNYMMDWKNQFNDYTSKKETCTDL

Row | Papp (in vitro [4]) [×10⁻⁶ cm/s] | SMILES | IC50 (Acetylcholinesterase; read-out: IC50) [nM] | EC50 [1] [nM] | IC50 (Butyrylcholinesterase [2]) [nM] | Papp at 12 h (in vitro [3]) [×10⁻⁶ cm/s] | IC50 (Acetylcholinesterase) | IC50 (Butyrylcholinesterase [5]) | IC50 [6] [nM]
1 |  | N#Cc1ccc2[nH]cc(C(=O)CCCN3CCN(c4ccc5c(N)c6c(nc5c4)CCCC6)CC3)c2c1 | 1980 | 567 | 370 | 1.68 |  |  | 
2 | 11 | COc1ccc(CCN2CCC(Nc3nc4ccccc4n3Cc3ccc(F)cc3)CC2)cc1 [ASTEMIZOLE] |  |  |  |  |  |  | 
3 |  | N#Cc1ccc2[nH]cc(C(=O)CCCN3CCN(c4cccc5c(N)c6c(nc45)CCCC6)CC3)c2c1 | 3310 | 35 | 1850 | 1.61 |  |  | 
4 |  | N#Cc1ccc2[nH]cc(C(=O)CCCN3CCN(c4ccc5nc6c(c(N)c5c4)CCCC6)CC3)c2c1 | 2910 | 1560 | 250 | 1.04 |  |  | 
5 |  | Nc1c2c(nc3cccc(N4CCN(CCCCc5c[nH]c6ccc(Br)cc56)CC4)c13)CCCC2 |  | 0.35 |  | 3.05 | Nd(Insoluble) | Nd(Insoluble) | 
6 |  | Nc1c2c(nc3cccc(N4CCN(CCCCc5c[nH]c6ccc(F)cc56)CC4)c13)CCCC2 |  | 0.72 |  | 3.76 | Nd(Insoluble) | Nd(Insoluble) | 
7 |  | Nc1c2c(nc3cccc(N4CCN(CCCCc5c[nH]c6ccccc56)CC4)c13)CCCC2 | 1440 | 1.2 | 390 | 3.52 |  |  | 
8 |  | Nc1c2c(nc3cccc(N4CCN(CCCCc5c[nH]c6ccc(Cl)cc56)CC4)c13)CCCC2 |  | 0.75 |  | 2.74 | Nd(Insoluble) | Nd(Insoluble) | 
9 |  | N#Cc1ccc2[nH]cc(CCCCN3CCN(c4ccc5oc(C(N)=O)cc5c4)CC3)c2c1 [VILAZODONE] | 21300 |  |  |  |  |  | 
10 |  | N#Cc1ccc2[nH]cc(CCCCN3CCN(c4ccc5nc6c(c(N)c5c4)CCCC6)CC3)c2c1 | 10200 | 14.9 | 640 | 3.55 |  |  | 
11 |  | N#Cc1ccc2[nH]cc(CCCCN3CCN(c4cccc5nc6c(c(N)c45)CCCC6)CC3)c2c1 | 1720 | 0.36 | 340 | 5.11 |  |  | 20.4
12 |  | CC(=O)Nc1c2c(nc3cccc(N4CCN(CCCCc5c[nH]c6ccc(C#N)cc56)CC4)c13)CCCC2 | 5610 | 93.4 | 2920 | 1.92 |  |  | 
13 |  | Cc1ccc2[nH]cc(CCCCN3CCN(c4cccc5nc6c(c(N)c45)CCCC6)CC3)c2c1 | 1120 | 0.6 | 360 | 3.64 |  |  | 
14 |  | COc1ccc2[nH]cc(CCCCN3CCN(c4cccc5nc6c(c(N)c45)CCCC6)CC3)c2c1 | 1620 | < 0.14 | 400 | 4.53 |  |  | 229
15 |  | COC(=O)c1ccc2[nH]cc(CCCCN3CCN(c4cccc5nc6c(c(N)c45)CCCC6)CC3)c2c1 | 2220 | < 0.14 | 410 | 6.22 |  |  | 314
16 |  | N#Cc1ccc2[nH]cc(CCCCN3CCN(c4cccc5nc6c(c(N)c45)CCC6)CC3)c2c1 | 2360 | 0.58 | 100 | 4.38 |  |  | 22.1
17 |  | N#Cc1ccc2[nH]cc(CCN3CCN(c4cccc5nc6c(c(N)c45)CCCC6)CC3)c2c1 | 2100 | > 10000 | 1130 | 4.48 |  |  | 
18 | 0.8 | CC1COc2c(N3CCN(C)CC3)c(F)cc3c2N1CC(C(=O)O)C3=O (stereo not drawn) |  |  |  | 0.4 |  |  | 
19 |  | N#Cc1ccc2[nH]cc(CCCCN3CCN(c4ccc5c(N)c6c(nc5c4)CCCC6)CC3)c2c1 | 5100 | 28.8 | 250 | 2.99 |  |  | 
20 |  | N#Cc1ccc2[nH]cc(CCCN3CCN(c4cccc5nc6c(c(N)c45)CCCC6)CC3)c2c1 | 1820 | 52 | 420 | 5.46 |  |  | 
21 |  | N#Cc1ccc2[nH]cc(CCCCN3CCN(c4cccc5nc6c(c(N)c45)CCCCC6)CC3)c2c1 | 18300 | 146 | 230 | 3.97 |  |  | 
22 |  | N#Cc1ccc2[nH]cc(C(=O)CCCN3CCN(c4cccc5nc6c(c(N)c45)CCCC6)CC3)c2c1 | 1360 | 62.4 | 390 | 1.33 |  |  | 
23 |  | N#Cc1ccc2[nH]cc(CCCCN3CCN(c4cccc5c(N)c6c(nc45)CCCC6)CC3)c2c1 | 2330 | 1.55 | 310 | 4.43 |  |  | 
